From patent publication US12636299B2, “Terpenoid derivatives, pharmaceutical preparations containing these derivatives and their use in neuroprotection” (UNIVERZITA PALACKEHO V OLOMOUCI, priority 2020, dated 2026)

Assays:
[1] = system: superoxide radical formation; assay: Oxidative stress (superoxide radical formation, DHE) in 3NPA-induced model on SH-SY5Y; format: cell-based, human; conditions: for Superoxide radical formation (oxidative stress) %: 20 mM 3NPA = 100%, 24 hours
Method: Similarly, to previous assay, cells grown on 96-multiwell plates at density 20000 cells per well underwent differentiation and treatment procedure with 3-nitropropionic acid (3NPA) in this model. After 24 hours of co-treatment with 20 mM 3NPA, superoxide radical's formation as a marker of oxidative stress was quantified by dihydroethidium according to Kim et al. (2017, J. Med. Food, 20, 140-151). Briefly, neuron-like SH-SY5Y cells were centrifuged at 500 g for 5 min and 30 s, then media were replaced by 10 μM DHE PBS solution and kept at room temperature for 30 min. After that, DHE was read at 500 nm/580 nm (excitation/emission) by Infinite M200 Pro (Tecan) microplate reader. DHE is cell permeable dye which is selective for superoxide radical detection. Overall oxidative stress achieved by 20 mM 3NPA was consider as 100% and thus the reduction in superoxide radical's formation (OS reducing effect) was determined. As shown in Table 6 and FIG. 2, 20 mM 3NPA induced 2.7-fold increase in superoxide radical's formation.

glial A-172 cells = assay: Cytotoxicity, Calcein AM viability assay on glial A-172 cells; format: cell-based, human; conditions: 48 hours
[2] = system: human neuron-like SH-SY5Y cells; assay: 3NPA-induced model of Huntington's disease, neuron-like SH-SY5Y cells; format: cell-based; conditions: difference to 20 mM 3NPA, 48 h
Method: (§1) Before application of toxin 3-nitropropionic acid (3NPA) for mimicking Huntington's disease, the 3NPA was dissolved in water and neutralized by sodium hydroxide. SH-SY5Y cells were seeded in the same density and differentiated by the procedure shown above. Astrocyte cells A-172 were also seeded as described in previous section. Both cell lines were co-treated by 3NPA (20 mM for SH-SY5Y cells, […]) and tested compounds at 0.1, 1 and 10 μM concentration for 48 h.

[3] = system: SH-SY5Y human neuroblastoma cell line; assay: Cytotoxicity, Calcein AM viability assay on neuron-like SH-SY5Y cells; format: cell-based; conditions: 24 h
Method: The SH-SY5Y human neuroblastoma cell line obtained from ECACC (The European Collection of Authenticated Cell Cultures) was cultivated in Dulbecco's modified Eagle's Medium and Ham's F12 Nutrient Mixture (DMEM:F-12, 1:1), supplemented with 10% fetal bovine serum (FBS) and 1% penicillin and streptomycin at 37° C. in a humidified atmosphere 5% CO2, 95% humidity in passage limit up to ECACC+20. The assay was performed in 96-well microplate with 7000 SH-SY5Y cells per well. After 48 h, old DMEM/F12 media was removed by fresh media containing tested compounds at 0.1, 1 and 10 μM concentrations for 24 h. Glial cell line A-172 purchased from ATCC and grown in same conditions as SH-SY5Y cell line. A-172 cells were seeded in density 2000 cells per well and growing medium was replaced by treatment medium containing tested compounds in 0.1, 1 and 10 μM concentration; or in higher concentrations for R-LA or NAC positive controls for 48 hours. All tested compounds dissolved in DMSO were added into the medium. The maximum concentration of DMSO in media was kept below 0.1% (v/v). The cell viability was measured by Calcein AM (1 mg/ml ThermoFisher) viability assay. Solution of Calcein AM in PBS (0.75 μM) was pipetted to cells and incubated for 50 min. After that the fluorescence was measured at 488/517 nm (excitation/emission) using microplate reader Infinite M200 (TECAN). Calcein AM assay is based on the dye-intracellular-esterase cleavage of non-fluorescent dye (Calcein AM) by living cells to fluorescent dye (Calcein), while dying cells lose such ability. The values in Table 2 show the % of viability compared to control for all tested compounds. The results from DMSO control (medium with DMSO, <0.1% (v/v)) was postulated as 100% viability (see the first line of Table 2).

caspase-3,7 activity = assay: Caspase-3,7 activity in salsolinol-induced model of PD on SH-SY5Y (Ac-DEVD-AMC); format: cell-based, human; conditions: for Caspase-3,7 activity (% of 800 μM SAL control): percentages of control (800 μM SAL = 100), 24 hour co-treatment; for reduction of caspase-3,7 activity, in words: 800 μM SAL, compounds 3 and 4 at 10 μM compared with NAC
Method: Similarly, as shown in previous assay, cells grew on 96 multiwell plates at density 20000 cells per well underwent differentiation and treatment procedure for salsolinol model. After 24 hour co-treatment with salsolinol, caspase-3,7 (casp-3,7) activity as marker of apoptosis was quantified by its substrate Ac-DEVD-AMC according to Carrasco et al. (2003, BioTechniques, 34, 1064-1067). In this model, overall casp-3,7 activity induced by 800 μM SAL was consider as 100% and thus the reduction in casp-3,7 was observed after treatment with the protective terpenoid derivatives. As shown in Table 4 and FIG. 2, 800 μM SAL induced 2.9-fold increase.

[4] = system: human neuroblastoma cell line SH-SY5Y; assay: Viability of differentiated SH-SY5Y in salsolinol-induced model of PD (Calcein AM); format: cell-based; conditions: for Neuroprotective effect (% of control): difference between 800 μM SAL and co-treatment group means
Method: Similarly, as in previous “Safety test”, the SH-SY5Y cells were seeded at density 7000 cells/well. After 48 h differentiation, old 1% DMEM/F12 media was replaced by fresh media containing 800 μM salsolinol (SAL) and tested compounds in 0.1, 1 and 10 μM concentrations. N-acetylcystein were chosen as positive control. After 24 hours, the cell viability was measured by Calcein AM viability assay. The values in Table 2 show % of viability of all tested compounds relative to control. The control (medium with DMSO, <0.1% (v/v)) was postulated as 100% viability (see the first line of the table), while the SAL exposure lead to decrease of viability to 65.4±0.97%.

astrocyte A-172 cells = assay: 3NPA-induced model of Huntington's disease, astrocyte A-172 cells; format: cell-based, human; conditions: for Astro-protective effect (% of control): difference to 10 mM 3NPA, 48 h
Method: as §1

How did the “Superoxide radical formation (oxidative stress) %” value ([1]; 0.1 μM) turn out when `C=C(C(=O)OCc1ccco1)C1CCC2(COC(C)=O)CCC3(C)C(CCC4C5(C)CCC(OC(C)=O)C(C)(C)C5CCC43C)C12` (stereo not drawn) [Compound 5, Furan-2-yl-methyl 3β,28-diacetyloxylup-20(29)-en-30-oate] was run?
Its value is 94.1%.

What about the “Superoxide radical formation (oxidative stress) %” value ([1]; 1 μM) of the same compound?
Its value is 87.3%.

What about the “Superoxide radical formation (oxidative stress) %” value ([1]; 10 μM) of the same compound?
Its value is 87.1%.

And the “viability, percentage of DMSO control” value (glial A-172 cells; 0.1 μM)?
The value was 96.6%.

What about the “viability, percentage of DMSO control” value (glial A-172 cells; 1 μM) of the same compound?
Its value is 100.0%.

What about the “viability, percentage of DMSO control” value (glial A-172 cells; 10 μM) of the same compound?
Its value is 90.8%.

And the “Neuro-protective effect (% of control)” value ([2]; 0.1 μM)?
Its value is “N/A (N/A = no protection)”.

What about the “Neuro-protective effect (% of control)” value ([2]; 1 μM) of the same compound?
The value was “N/A (N/A = no protection)”.

What about the “Neuro-protective effect (% of control)” value ([2]; 10 μM) of the same compound?
The value was 20.63 % of control.

And the “viability, percentage of DMSO control” value ([3]; 0.1 μM)?
The value was 91.9%.

And the “viability, percentage of DMSO control” value ([3]; 1 μM)?
The value was 106.4%.

What about the “viability, percentage of DMSO control” value ([3]; 10 μM) of the same compound?
The value was 129.5%.

And the “Caspase-3,7 activity (% of 800 μM SAL control)” value (caspase-3,7 activity; 1 μM)?
Its value is 86.8%.

And the “Caspase-3,7 activity (% of 800 μM SAL control)” value (caspase-3,7 activity; 10 μM)?
Its value is 76.5%.

What about the “reduction of caspase-3,7 activity, in words” value (caspase-3,7 activity) of the same compound?
The value was “positive effect on casp-3,7 activity”.

What about the “efficacy relative to positive controls (by used concentration)” value (caspase-3,7 activity; caspase-3,7 activity, salsolinol model) of the same compound?
Its value is 10 fold.

And the “Neuroprotective effect (% of control)” value ([4]; 0.1 μM, 24 hours)?
Its value is “N/A (N/A = no protection)”.

What about the “Neuroprotective effect (% of control)” value ([4]; 1 μM, 24 hours) of the same compound?
The value was “N/A (N/A = no protection)”.

What about the “Neuroprotective effect (% of control)” value ([4]; 10 μM, 24 hours) of the same compound?
Its value is 18.96 % of control.

What about the “effect on SH-SY5Y viability in salsolinol model, in words” value ([4]; 800 μM salsolinol, comparison with NAC) of the same compound?
Its value is “better effect than 1000 μM NAC”.

What about the “Astro-protective effect (% of control)” value (astrocyte A-172 cells; A-172, 0.1 μM) of the same compound?
Its value is “N/A (N/A = no protection)”.

What about the “Astro-protective effect (% of control)” value (astrocyte A-172 cells; A-172, 1 μM) of the same compound?
The value was 12.87 % of control.

What about the “Astro-protective effect (% of control)” value (astrocyte A-172 cells; A-172, 10 μM) of the same compound?
The value was 14.05 % of control.

What about the “protective effect on astrocytes in 3NPA model, in words” value (astrocyte A-172 cells; A-172 cells, comparison with R-LA) of the same compound?
The value was “positive effect comparable to R-LA control”.

Which results are given for `O=C(O)CCCC[C@@H]1CCSS1` [R-LA, R-lipoic acid, reference compound]?
Astro-protective effect (% of control) (astrocyte A-172 cells; A-172, column head 0.5 μM (positive controls)): N/A (N/A = no protection); Astro-protective effect (% of control) (astrocyte A-172 cells; A-172, column head 5 μM (positive controls)): 13.27 % of control; Astro-protective effect (% of control) (astrocyte A-172 cells; A-172, column head 50 μM (positive controls)): 14.87 % of control

How did the “increase in superoxide radical's formation” value ([1]; 20 mM 3NPA versus DMSO control) turn out when `O=C(O)CC[N+](=O)[O-]` [Compound 3NPA, 3-nitropropionic acid, reference compound] was run?
Its value is 2.7 fold.

How did the “increase of caspase-3,7 activity” value (caspase-3,7 activity; 800 μM SAL versus DMSO control) turn out when `C[C@@H]1NCCc2cc(O)c(O)cc21` [SAL, salsolinol, reference compound] was run?
Its value is 2.9 fold.

And the “viability relative to DMSO control after SAL exposure” value ([4]; 800 μM salsolinol alone, 24 hours)?
Its value is 65.4±0.97%.

Which “Superoxide radical formation (oxidative stress) %” value ([1]; 0.1 μM) does the source give for `C=C(C(=O)OCc1cccs1)C1CCC2(COC(C)=O)CCC3(C)C(CCC4C5(C)CCC(OC(C)=O)C(C)(C)C5CCC43C)C12` (stereo not drawn) [Compound 6, Thiophen-2-ylmethyl 3β,28-diacetyloxy-lup-20(29)-en-30-oate] here?
Its value is 92.2%.

And the “Superoxide radical formation (oxidative stress) %” value ([1]; 1 μM)?
The value was 89.9%.

And the “Superoxide radical formation (oxidative stress) %” value ([1]; 10 μM)?
Its value is 88.0%.

And the “viability, percentage of DMSO control” value (glial A-172 cells; 0.1 μM)?
The value was 99.9%.

And the “viability, percentage of DMSO control” value (glial A-172 cells; 1 μM)?
Its value is 98.4%.

And the “viability, percentage of DMSO control” value (glial A-172 cells; 10 μM)?
The value was 96.2%.

What about the “Neuro-protective effect (% of control)” value ([2]; 0.1 μM) of the same compound?
Its value is “N/A (N/A = no protection)”.

And the “Neuro-protective effect (% of control)” value ([2]; 1 μM)?
Its value is “N/A (N/A = no protection)”.

What about the “Neuro-protective effect (% of control)” value ([2]; 10 μM) of the same compound?
The value was 20.53 % of control.

What about the “viability, percentage of DMSO control” value ([3]; 0.1 μM) of the same compound?
The value was 92.1%.

And the “viability, percentage of DMSO control” value ([3]; 1 μM)?
The value was 96.2%.

And the “viability, percentage of DMSO control” value ([3]; 10 μM)?
Its value is 113.5%.

And the “Caspase-3,7 activity (% of 800 μM SAL control)” value (caspase-3,7 activity; 1 μM)?
The value was 93.2%.

What about the “Caspase-3,7 activity (% of 800 μM SAL control)” value (caspase-3,7 activity; 10 μM) of the same compound?
Its value is 88.3%.

What about the “reduction of caspase-3,7 activity, in words” value (caspase-3,7 activity) of the same compound?
Its value is “positive effect on casp-3,7 activity”.

What about the “Neuroprotective effect (% of control)” value ([4]; 0.1 μM, 24 hours) of the same compound?
Its value is “N/A (N/A = no protection)”.

What about the “Neuroprotective effect (% of control)” value ([4]; 1 μM, 24 hours) of the same compound?
The value was “N/A (N/A = no protection)”.

And the “Neuroprotective effect (% of control)” value ([4]; 10 μM, 24 hours)?
The value was 7.38 % of control.

What about the “Astro-protective effect (% of control)” value (astrocyte A-172 cells; A-172, 0.1 μM) of the same compound?
The value was 4.27 % of control.

And the “Astro-protective effect (% of control)” value (astrocyte A-172 cells; A-172, 1 μM)?
The value was 4.57 % of control.

And the “Astro-protective effect (% of control)” value (astrocyte A-172 cells; A-172, 10 μM)?
Its value is 7.45 % of control.
